For 10 compounds, IC50 and EC50 results are on record in patent US20220227789A1, “NOVEL INDOLIZINE-2-CARBOXAMIDES ACTIVE AGAINST THE HEPATITIS B VIRUS (HBV)” (AiCuris GmbH & Co. KG, priority 2019, published 2022).

In test [1] the target is T1, HBV core protein (C-terminal truncated, 149 aa assembly domain) (Hepatitis B virus genotype D subtype adw, UniProt P03147, C107A/C48A/C61A).
T1 construct: The C-terminal truncated core protein containing 149 amino acids of the N-terminal assembly domain; made in house; host or cells: E. coli BL21 (DE3) Rosetta2, plasmid pET21b
T1 sequence (P03147 1-150, looked up, stated change not applied): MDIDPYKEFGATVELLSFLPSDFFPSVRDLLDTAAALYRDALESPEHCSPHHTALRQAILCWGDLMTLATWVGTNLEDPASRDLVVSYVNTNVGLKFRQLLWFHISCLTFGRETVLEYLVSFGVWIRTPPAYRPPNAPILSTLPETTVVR
Nature of the test: Biochemical capsid assembly assay (fluorescence quenching). The note with it: BODIPY-FL labelled core protein, assembly started with NaCl, read after 6 min; read-out: Assembly Activity. How it is done:
Biochemical Capsid Assembly Assay
The screening for assembly effector activity was done based on a fluorescence quenching assay published by Zlotnick et al. (2007). The C-terminal truncated core protein containing 149 amino acids of the N-terminal assembly domain fused to a unique cysteine residue at position 150 and was expressed in E. coli using the pET expression system (Merck Chemicals, Darmstadt). Purification of core dimer protein was performed using a sequence of size exclusion chromatography steps. In brief, the cell pellet from 1 L BL21 (DE3) Rosetta2 culture expressing the coding sequence of core protein cloned NdeI/XhoI into expression plasmid pET21b was treated for 1 h on ice with a native lysis buffer (Qproteome Bacterial Protein Prep Kit; Qiagen, Hilden). After a centrifugation step the supernatant was precipitated during 2 h stirring on ice with 0.23 g/ml of solid ammonium sulfate. Following further centrifugation the resulting pellet was resolved in buffer A (100 mM Tris, pH 7.5; 100 mM NaCl; 2 mM DTT) and was subsequently loaded onto a buffer A equilibrated CaptoCore 700 column (GE HealthCare, Frankfurt). The column flow through containing the assembled HBV capsid was dialyzed against buffer N (50 mM NaHCO3 pH 9.6; 5 mM DTT) before urea was added to a final concentration of 3M to dissociate the capsid into core dimers for 1.5 h on ice. The protein solution was then loaded onto a 1 L Sephacryl 5300 column. After elution with buffer N core dimer containing fractions were identified by SDS-PAGE and subsequently pooled and dialyzed against 50 mM HEPES pH 7.5; 5 mM DTT. To improve the assembly capacity of the purified core dimers a second round of assembly and disassembly starting with the addition of 5 M NaCl and including the size exclusion chromatography steps described above was performed. From the last chromatography step core dimer containing fractions were pooled and stored in aliquots at concentrations between 1.5 to 2.0 mg/ml at −80° C.
Immediately before labelling the core protein was reduced by adding freshly prepared DTT in a final concentration of 20 mM. After […] on ice storage buffer and DTT was removed using a Sephadex G-25 column (GE HealthCare, Frankfurt) and 50 mM HEPES, pH 7.5. For labelling 1.6 mg/ml core protein was incubated at 4° C. and darkness overnight with BODIPY-FL maleimide (Invitrogen, Karlsruhe) in a final concentration of 1 mM. After labelling the free dye was removed by an additional desalting step using a Sephadex G-25 column. Labelled core dimers were stored in aliquots at 4° C. In the dimeric state the fluorescence signal of the labelled core protein is high and is quenched during the assembly of the core dimers to high molecular capsid structures. The screening assay was performed in black 384 well microtiter plates in a total assay volume of 10 μl using 50 mM HEPES pH 7.5 and 1.0 to 2.0 μM labelled core protein. Each screening compound was added in 8 different concentrations using a 0.5 log-unit serial dilution starting at a final concentration of 100 μM, 31.6 μM or 10 μM, In any case the DMSO concentration over the entire microtiter plate was 0.5%. The assembly reaction was started by the injection of NaCl to a final concentration of […] which induces the assembly process to approximately 25% of the maximal quenched signal. 6 min after starting the reaction the fluorescence signal was measured using a Clariostar plate reader (BMG Labtech, Ortenberg) with an excitation of 477 nm and an emission of 525 nm. As 100% and 0% assembly control HEPES buffer containing 2.5 M and 0 M NaCl was used. Experiments were performed thrice in triplicates. EC50 values were calculated by non-linear regression analysis using the Graph Pad Prism 6 software (GraphPad Software, La Jolla, USA).

A further test deals with HBV. Nature of the test: HBV replication assay: HBV DNA from the supernatants of HepAD38 cells. The format is cell-based. The conditions noted are these: Hepatitis B virus, 144 h, HBV DNA in supernatant by qPCR at day 6, read-out: Cell Activity. Here is the method:
Determination of HBV DNA from the Supernatants of HepAD38 Cells
The anti-HBV activity was analysed in the stable transfected cell line HepAD38, which has been described to secrete high levels of HBV virion particles (Ladner et al., 1997). In brief, HepAD38 cells were cultured at 37° C. at 5% CO2 and 95% humidity in 200 μl maintenance medium, which was Dulbecco's modified Eagle's medium/Nutrient Mixture F-12 (Gibco, Karlsruhe), 10% fetal bovine serum (PAN Biotech Aidenbach) supplemented with 50 μg/ml penicillin/streptomycin (Gibco, Karlsruhe), 2 mM L-glutamine (PAN Biotech, Aidenbach), 400 μg/ml G418 (AppliChem, Darmstadt) and 0.3 μg/ml tetracycline. Cells were subcultured once a week in a 1:5 ratio, but were usually not passaged more than ten times. For the assay 60,000 cells were seeded in maintenance medium without any tetracycline into each well of a 96-well plate and treated with serial half-log dilutions of test compound. To minimize edge effects the outer 36 wells of the plate were not used but were filled with assay medium. On each assay plate six wells for the virus control (untreated HepAD38 cells) and six wells for the cell control (HepAD38 cells treated with 0.3 μg/ml tetracycline) were allocated, respectively. In addition, one plate set with reference inhibitors like BAY 41-4109, entecavir, and lamivudine instead of screening compounds were prepared in each experiment. In general, experiments were performed thrice in triplicates. At day 6 HBV DNA from 100 μl filtrated cell culture supernatant (AcroPrep Advance 96 Filter Plate, […] Supor membran, PALL GmbH, Dreieich) was automatically purified on the MagNa Pure LC instrument using the MagNA Pure 96 DNA and Viral NA Small Volume Kit (Roche Diagnostics, Mannheim) according to the instructions of the manufacturer. EC50 values were calculated from relative copy numbers of HBV DNA In brief, 5 μl of the 100 μl eluate containing HBV DNA were subjected to PCR LC480 Probes Master Kit (Roche) together with 1 μM antisense primer […], 0.5 μM sense primer […], 0.3 μM hybprobes […]-FL and LC640-[…]-PH (TIBMolBiol, Berlin) to a final volume of […]. The PCR was performed on the Light Cycler 480 real time system (Roche Diagnostics, Mannheim) using the following protocol: Pre-incubation for 1 min at 95° C., amplification: 40 cycles×(10 sec at 95° C., 50 sec at 60° C., 1 sec at 70° C.), cooling for 10 sec at 40° C. Viral load was quantitated against known standards using HBV plasmid DNA of pCH-9/3091 (Nassal et al., 1990, Cell 63: 1357-1363) and the LightCycler 480 SW 1.5 software (Roche Diagnostics, Mannheim) and EC50 values were calculated using non-linear regression with GraphPad Prism 6 (GraphPad Software Inc., La Jolla, USA).
On the technique in general: Real-time PCR tracks product formation cycle by cycle.

pEC50, pIC50: −log10 of the molar value.

With `CC1Cc2[nH]nc(-c3cscn3)c2CN1C(=O)c1cc2cc(Cl)ccn2c1` (centres unmarked) [Example 19, 7-chloro-2-[6-methyl-3-(1,3-thiazol-4-yl)-1H,4H,5H,6H,7H-pyrazolo[4,3-c]pyridine-5-carbonyl]indolizine], in test [1], the pIC50 was 5.00 to 5.30. Further, the pEC50 in the test with HBV is greater than 6.00.

On to `CC1Cc2[nH]nc(-c3cscn3)c2CN1C(=O)c1cc2cccc(Cl)n2c1` (centres unmarked) [Example 20, 5-chloro-2-[6-methyl-3-(1,3-thiazol-4-yl)-1H,4H,5H,6H,7H-pyrazolo[4,3-c]pyridine-5-carbonyl]indolizine], for which the pIC50 in test [1] was 5.00 to 5.30. In the test with HBV, the pEC50 is greater than 6.00.

Regarding `CC1Cc2[nH]nc(-c3cscn3)c2CN1C(=O)c1cc2ccc(Cl)cn2c1` (centres unmarked) [Example 21, 6-chloro-2-[6-methyl-3-(1,3-thiazol-4-yl)-1H,4H,5H,6H,7H-pyrazolo[4,3-c]pyridine-5-carbonyl]indolizine], the pIC50 in test [1] is 5.00 to 5.30. Also, the pEC50 in the test on HBV was greater than 6.00.

Consider `CC1Cc2[nH]nc(-c3cscn3)c2CN1C(=O)c1cc2cc(Cl)c(F)cn2c1` (centres unmarked) [Example 22, 7-chloro-6-fluoro-2-[6-methyl-3-(1,3-thiazol-4-yl)-1H,4H,5H,6H,7H-pyrazolo[4,3-c]pyridine-5-carbonyl]indolizine], for which the pIC50 in test [1] was 5.00 to 5.30. For the same compound, in the test on HBV, the pEC50 was greater than 6.00.

With `CC1Cc2[nH]nc(-c3cscn3)c2CN1C(=O)c1cc2ccc(F)cn2c1` (centres unmarked) [Example 23, 6-fluoro-2-[6-methyl-3-(1,3-thiazol-4-yl)-1H,4H,5H,6H,7H-pyrazolo[4,3-c]pyridine-5-carbonyl]indolizine], the pIC50 in test [1] was greater than 5.30. The pEC50 in the test with HBV is greater than 6.00.

As for `CC1Cc2[nH]nc(-c3cscn3)c2CN1C(=O)c1cc2c(F)cccn2c1` (centres unmarked) [Example 24, 8-fluoro-2-[6-methyl-3-(1,3-thiazol-4-yl)-1H,4H,5H,6H,7H-pyrazolo[4,3-c]pyridine-5-carbonyl]indolizine], in test [1], the pIC50 was greater than 5.30. Moreover, the pEC50 in the test with HBV is greater than 6.00.

As for `CC1Cc2[nH]nc(-c3cscn3)c2CN1C(=O)c1cc2c(C(F)(F)F)cccn2c1` (centres unmarked) [Example 25, 2-[6-methyl-3-(1,3-thiazol-4-yl)-1H,4H,5H,6H,7H-pyrazolo[4,3-c]pyridine-5-carbonyl]-8-(trifluoromethyl)indolizine], the pIC50 in test [1] is 5.00 to 5.30. Besides, in the test with HBV, the pEC50 was greater than 6.00.

For the compound `CC1Cc2[nH]nc(-c3cscn3)c2CN1C(=O)c1cc2ccccn2c1` (centres unmarked) [Example 26, 2-[6-methyl-3-(1,3-thiazol-4-yl)-1H,4H,5H,6H,7H-pyrazolo[4,3-c]pyridine-5-carbonyl]indolizine], in test [1], the pIC50 was greater than 5.30. Moreover, in the test with HBV, the pEC50 is greater than 6.00.

Take `CC(NC(=O)c1noc2c1CN(C(=O)c1cc3ccccn3c1)CC2)C(F)(F)F` (centres unmarked) [Example 51, 5-(indolizine-2-carbonyl)-N-(1,1,1-trifluoropropan-2-yl)-4H,5H,6H,7H-[1,2]oxazolo[4,5-c]pyridine-3-carboxamide]: the pIC50 in test [1] was greater than 5.30. In the test with HBV, the pEC50 was greater than 6.00.

`CC(NC(=O)c1onc2c1CN(C(=O)c1cc3ccccn3c1)CC2)C(F)(F)F` (centres unmarked) [Example 53, 5-(indolizine-2-carbonyl)-N-(1,1,1-trifluoropropan-2-yl)-4H,5H,6H,7H-[1,2]oxazolo[4,3-c]pyridine-3-carboxamide]: in test [1], the pIC50 was greater than 5.30. The pEC50 with HBV was greater than 6.00.
